{"source": "patent US10220029B2", "about": "“Pharmaceutical composition comprising glutarimide derivatives and use thereof in the treatment of eosinophilic diseases” (OBSCHESTVO S ORGANICHENNOI OTVETSTVENNOSTIYU …, priority 2013, dated 2019)", "key": {"[1]": {"system": "model of atopic dermatitis in mice", "test": "Response index in DNCB-induced atopic (allopathic) dermatitis in mice", "type": "in vivo, male Balb/c mice", "conditions": "n = 12", "procedure": "The model of allopathic dermatitis was realized by a standard method [Mechanism of dinitrochlorobenzene-induced dermatitis in mice: role of specific antibodies in pathogenesis//PLoS One. 2009; 4(11)].\nOn days 0 and 12 of the study, 100 μL of a 2% solution of 1-chloro-2,4-dinitrobenzene (DNCB, Sigma-Aldrich, US) in 95% ethanol was applied to shaved sites in the backs of male Balb/c mice. On day 17 of the study, to the right “studied” ear of the animals, 20 μL of the alcohol solution of 2% DNCB was applied two times with a one-hour interval. The studied compound and the reference preparation, dexamethasone, were administered by the intragastric route once daily on days 8-17 of the study.\nOn day 18 of the study, the animals were euthanized in a CO2 camera. The weights of the “studied” and “control” ears were measured. A response index (RI) expressed in percentage of a difference in the weights of the “studied” and “control” ears was calculated."}, "[2]": {"system": "model of allergic rhinitis in guinea pigs", "test": "Content of cell elements in the nasal lavage in the model of allergic rhinitis in guinea pigs", "type": "in vivo, guinea pig", "conditions": "14 mg/kg intragastric, 3 times; nasal lavage 24 hours after last ovalbumin; n = 8", "procedure": "(§1) The model of allergic rhinitis in guinea pigs was realized by a standard method [Vishnu N. Thakare, M. M. Osama, Suresh R. Naik. […] 2013 September; 17(1):18-25].\n(§2) Guinea pigs (250-300 g) were immunized with 4-time (on days 0, 7, 14, and 21) intragastric administration of ovalbumin (100 μg/pig) and aluminium hydroxide (5 mg/pig), both of which were diluted and suspended in a physiological saline solution. […], a solution of ovalbumin (60 mg/mL) was administered intranasally to each nostril of the animals at a dose 20 μL. On day 35, the animals received subcutaneously an ovalbumin solution (200 μg/mL, 25 μL); the animal back was previously shaved in the site of administration. Swelling and redness at the injection site served as a support of sensibilisation. On day 42 of the study, an ovalbumin solution (60 mg/mL, 20 μL/nostril) was administered intranasally. A group of pseudoimmunized animals was formed to control the formation of exactly allergic inflammation: on days 0, 7, 14, and 21, the pigs received a solution of aluminium hydroxide (5 mg/pig), and on days 28 and 35, they received a physiological saline solution, and on day 42, a solution of ovalbumin (60 mg/mL, 20 μL/nostril).\n(§3) The studied compounds (14 mg/kg) were administered 3 times by the intragastric route: 48, 24, and 1 hour before the last administration of ovalbumin. The reference preparation, dexamethasone, was administered one time by the intragastric route, 3 hours before the last intranasal administration of ovalbumin.\n(§4) Clinical manifestations, such as the number of sneezes and nose scratchings, were registered for 2 hours after the last administration of ovalbumin. Nasal lavage was taken 24 hours after the last administration of ovalbumin, and in this lavage, the total lymphocyte count and leukocyte formula were determined. The number of guinea pigs in a group was 8."}, "[3]": {"system": "model of allergic rhinitis in guinea pigs", "test": "Clinical manifestations of allergic rhinitis in guinea pigs (sneezes, nose scratchings)", "type": "in vivo, guinea pig", "conditions": "14 mg/kg intragastric, 3 times; 2 hours after last ovalbumin; n = 8", "procedure": "as §1, §2, §3, §4"}, "[4]": {"system": "model of sephadex-induced eosinophilic lung inflammation in rats", "test": "Content of cell elements in BAL in the model of sephadex-induced eosinophilic lung inflammation in rats", "type": "in vivo, male Wistar rats", "conditions": "Table 8, four times, BAL 48 hours after sephadex, n = 10", "procedure": "The model of sephadex-induced eosinophilic lung inflammation in rats was realized by a standard method [Evaldsson C, Rydén I, Uppugunduri S. Isomaltitol exacerbates neutrophilia but reduces eosinophilia: new insights into the sephadex model of lung inflammation//Int Arch Allergy Immunol. 2011; 154(4):286-94]. Sephadex G-200 (Pharmacia, Sweden) was administered one time by inhalation to male Wistar rats at a dose of 5 mg/kg. The studied compounds were administered to the animals by the intragastric route four times: 24 hours and 1 hour before and 24 hours and 45 hours after administration of sephadex. The reference preparation, budesonide, was administered according to the same scheme, by inhalation at a dose of 0.5 mg/kg. Bronchoalveolar lavage was taken 48 hours after the inhalation of sephadex, and the total lymphocyte count and leukocyte formula in the lavage were determined. The number of rats in a group was 7 to 10."}}, "data": [{"smiles": "O=C1CCCC(=O)N1CCc1cnc[nH]1", "note": "[Compound 1, 1-(2-(1H-imidazol-4-yl)ethyl)piperidine-2,6-dione]", "values": [{"measurement": "Response index (%)", "setting": "[1]; 0.3 mg/kg intragastric once daily on days 8-17", "value": "74.4 ± 7.3*& %"}, {"measurement": "Response index (%)", "setting": "[1]; 3 mg/kg intragastric once daily on days 8-17", "value": "69.5 ± 8.2*& %"}, {"measurement": "Response index (%)", "setting": "[1]; 30 mg/kg intragastric once daily on days 8-17", "value": "69.1 ± 8*& %"}, {"measurement": "Eosinophils, content of cell elements in 1 μL of nasal lavage", "setting": "[2]", "value": "521 ± 129& in 1 μL of nasal lavage"}, {"measurement": "Leukocytes, content of cell elements in 1 μL of nasal lavage", "setting": "[2]", "value": "1300 ± 254& in 1 μL of nasal lavage"}, {"measurement": "Lymphocytes, content of cell elements in 1 μL of nasal lavage", "setting": "[2]", "value": "6 ± 6 in 1 μL of nasal lavage"}, {"measurement": "Macrophages, content of cell elements in 1 μL of nasal lavage", "setting": "[2]", "value": "405 ± 130 in 1 μL of nasal lavage"}, {"measurement": "Neutrophils, content of cell elements in 1 μL of nasal lavage", "setting": "[2]", "value": "243 ± 58*& in 1 μL of nasal lavage"}, {"measurement": "Number of nose scratchings/2 hours", "setting": "[3]", "value": "13.9 ± 2.6 &"}, {"measurement": "Number of sneezes/2 hours", "setting": "[3]", "value": "5.9 ± 1.1 &"}, {"measurement": "Eosinophils, content of cell elements in 1 μL of BAL", "setting": "[4]; 0.06 mg/kg intragastric", "value": "118 ± 27*& in 1 μL of BAL"}, {"measurement": "Leukocytes, content of cell elements in 1 μL of BAL", "setting": "[4]; 0.06 mg/kg intragastric", "value": "2500 ± 307 in 1 μL of BAL"}, {"measurement": "Lymphocytes, content of cell elements in 1 μL of BAL", "setting": "[4]; 0.06 mg/kg intragastric", "value": "128 ± 48 in 1 μL of BAL"}, {"measurement": "Macrophages, content of cell elements in 1 μL of BAL", "setting": "[4]; 0.06 mg/kg intragastric", "value": "1417 ± 131 in 1 μL of BAL"}, {"measurement": "Neutrophils, content of cell elements in 1 μL of BAL", "setting": "[4]; 0.06 mg/kg intragastric", "value": "837 ± 231 in 1 μL of BAL"}, {"measurement": "Eosinophils, content of cell elements in 1 μL of BAL", "setting": "[4]; 0.18 mg/kg intragastric", "value": "174 ± 64*& in 1 μL of BAL"}, {"measurement": "Leukocytes, content of cell elements in 1 μL of BAL", "setting": "[4]; 0.18 mg/kg intragastric", "value": "2665 ± 455 in 1 μL of BAL"}, {"measurement": "Lymphocytes, content of cell elements in 1 μL of BAL", "setting": "[4]; 0.18 mg/kg intragastric", "value": "143 ± 54 in 1 μL of BAL"}, {"measurement": "Macrophages, content of cell elements in 1 μL of BAL", "setting": "[4]; 0.18 mg/kg intragastric", "value": "1661 ± 260 in 1 μL of BAL"}, {"measurement": "Neutrophils, content of cell elements in 1 μL of BAL", "setting": "[4]; 0.18 mg/kg intragastric", "value": "597 ± 168 in 1 μL of BAL"}, {"measurement": "Eosinophils, content of cell elements in 1 μL of BAL", "setting": "[4]; 0.54 mg/kg intragastric", "value": "126 ± 43*& in 1 μL of BAL"}, {"measurement": "Leukocytes, content of cell elements in 1 μL of BAL", "setting": "[4]; 0.54 mg/kg intragastric", "value": "2120 ± 218*& in 1 μL of BAL"}, {"measurement": "Lymphocytes, content of cell elements in 1 μL of BAL", "setting": "[4]; 0.54 mg/kg intragastric", "value": "196 ± 63 in 1 μL of BAL"}, {"measurement": "Macrophages, content of cell elements in 1 μL of BAL", "setting": "[4]; 0.54 mg/kg intragastric", "value": "1446 ± 113 in 1 μL of BAL"}, {"measurement": "Neutrophils, content of cell elements in 1 μL of BAL", "setting": "[4]; 0.54 mg/kg intragastric", "value": "352 ± 135 in 1 μL of BAL"}, {"measurement": "Eosinophils, content of cell elements in 1 μL of BAL", "setting": "[4]; 1.8 mg/kg intragastric", "value": "129 ± 44*& in 1 μL of BAL"}, {"measurement": "Leukocytes, content of cell elements in 1 μL of BAL", "setting": "[4]; 1.8 mg/kg intragastric", "value": "1915 ± 250*& in 1 μL of BAL"}, {"measurement": "Lymphocytes, content of cell elements in 1 μL of BAL", "setting": "[4]; 1.8 mg/kg intragastric", "value": "122 ± 49 in 1 μL of BAL"}, {"measurement": "Macrophages, content of cell elements in 1 μL of BAL", "setting": "[4]; 1.8 mg/kg intragastric", "value": "1214 ± 130 in 1 μL of BAL"}, {"measurement": "Neutrophils, content of cell elements in 1 μL of BAL", "setting": "[4]; 1.8 mg/kg intragastric", "value": "451 ± 149 in 1 μL of BAL"}, {"measurement": "Eosinophils, content of cell elements in 1 μL of BAL", "setting": "[4]; 5.4 mg/kg intragastric", "value": "152 ± 56*& in 1 μL of BAL"}, {"measurement": "Leukocytes, content of cell elements in 1 μL of BAL", "setting": "[4]; 5.4 mg/kg intragastric", "value": "2340 ± 322 in 1 μL of BAL"}, {"measurement": "Lymphocytes, content of cell elements in 1 μL of BAL", "setting": "[4]; 5.4 mg/kg intragastric", "value": "170 ± 45 in 1 μL of BAL"}, {"measurement": "Macrophages, content of cell elements in 1 μL of BAL", "setting": "[4]; 5.4 mg/kg intragastric", "value": "1525 ± 199 in 1 μL of BAL"}, {"measurement": "Neutrophils, content of cell elements in 1 μL of BAL", "setting": "[4]; 5.4 mg/kg intragastric", "value": "492 ± 129 in 1 μL of BAL"}, {"measurement": "Eosinophils, content of cell elements in 1 μL of BAL", "setting": "[4]; 18 mg/kg intragastric", "value": "69 ± 22*& in 1 μL of BAL"}, {"measurement": "Leukocytes, content of cell elements in 1 μL of BAL", "setting": "[4]; 18 mg/kg intragastric", "value": "2135 ± 205*& in 1 μL of BAL"}, {"measurement": "Lymphocytes, content of cell elements in 1 μL of BAL", "setting": "[4]; 18 mg/kg intragastric", "value": "168 ± 44 in 1 μL of BAL"}, {"measurement": "Macrophages, content of cell elements in 1 μL of BAL", "setting": "[4]; 18 mg/kg intragastric", "value": "1601 ± 134 in 1 μL of BAL"}, {"measurement": "Neutrophils, content of cell elements in 1 μL of BAL", "setting": "[4]; 18 mg/kg intragastric", "value": "297 ± 89*& in 1 μL of BAL"}]}]}
